Results published in PMC5513037, “Examining the influence of specificity ligands and ATP-competitive ligands on the overall effectiveness of bivalent kinase inhibitors” (Proteome Science, 2017).

Experiments:
Assay in all cases: KAM-matrix competition in K562 lysate;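 on 0.001 uM KAM: median log10 fold change of treatment over DMSO control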;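 on 0.01 uM KAM: median log10 fold change of treatment over DMSO control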;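 on 0.1 uM KAM: median log10 fold change of treatment over DMSO control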;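 on 1 uM KAM: median log10 fold change of treatment over DMSO control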;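 on 10 uM KAM: median log10 fold change of treatment over DMSO control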
Type in all cases: binding
BMP2K = molecular target: T1, BMP2K (Homo sapiens, UniProt Q9NSY1)
T1 construct: endogenous in cells; host or cells: K562
Protocol: (§1) Supplement 12953_2017_125_MOESM1_ESM.zip/MS_Supp Info.xlsx, sheet "KAM" | column: 10 uM KAM; 1 uM KAM; 0.1 uM KAM; 0.01 uM KAM; 0.001 uM KAM; RB50

BMPR1A = molecular target: T2, BMPR1A (Homo sapiens, UniProt P36894)
T2 construct: endogenous in cells; host or cells: K562
Protocol: as §1

CLK2 = molecular target: T3, CLK2 (Homo sapiens, UniProt P49760);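 on 0.001 uM KAM: median log10 fold change of treatment over DMSO control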;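 on 0.01 uM KAM: median log10 fold change of treatment over DMSO control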;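 on 0.1 uM KAM: median log10 fold change of treatment over DMSO control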;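 on 1 uM KAM: median log10 fold change of treatment over DMSO control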;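 on 10 uM KAM: median log10 fold change of treatment over DMSO control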
T3 construct: endogenous in cells; host or cells: K562
Protocol: as §1

MAPK14 = molecular target: T4, MAPK14 (Homo sapiens, UniProt Q16539);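 on 0.001 uM KAM: median log10 fold change of treatment over DMSO control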;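 on 0.01 uM KAM: median log10 fold change of treatment over DMSO control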;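 on 0.1 uM KAM: median log10 fold change of treatment over DMSO control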;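 on 1 uM KAM: median log10 fold change of treatment over DMSO control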;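 on 10 uM KAM: median log10 fold change of treatment over DMSO control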
T4 construct: endogenous in cells; host or cells: K562
Protocol: as §1

MAPK3 = molecular target: T5, MAPK3 (Homo sapiens, UniProt P27361)
T5 construct: endogenous in cells; host or cells: K562
Protocol: as §1

MAPKAPK5 = molecular target: T6, MAPKAPK5 (Homo sapiens, UniProt Q8IW41)
T6 construct: endogenous in cells; host or cells: K562
T6 sequence (Q8IW41 1-473): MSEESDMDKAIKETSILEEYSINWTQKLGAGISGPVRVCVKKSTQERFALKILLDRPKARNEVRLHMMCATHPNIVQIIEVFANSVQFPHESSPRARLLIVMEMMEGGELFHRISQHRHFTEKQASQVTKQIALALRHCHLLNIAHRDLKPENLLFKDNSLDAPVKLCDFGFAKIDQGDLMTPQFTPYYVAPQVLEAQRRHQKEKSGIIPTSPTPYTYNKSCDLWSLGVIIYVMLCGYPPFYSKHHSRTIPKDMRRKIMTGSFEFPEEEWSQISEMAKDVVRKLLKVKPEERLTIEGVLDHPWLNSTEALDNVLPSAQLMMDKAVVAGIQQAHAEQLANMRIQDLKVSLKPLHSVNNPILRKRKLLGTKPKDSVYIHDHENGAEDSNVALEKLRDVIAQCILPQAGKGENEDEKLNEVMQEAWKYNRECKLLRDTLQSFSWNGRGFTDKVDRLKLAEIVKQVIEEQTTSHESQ
Protocol: as §1

NPR2 = molecular target: T7, NPR2 (Homo sapiens, UniProt P20594);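 on 0.001 uM KAM: median log10 fold change of treatment over DMSO control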;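 on 0.01 uM KAM: median log10 fold change of treatment over DMSO control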;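 on 0.1 uM KAM: median log10 fold change of treatment over DMSO control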;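 on 1 uM KAM: median log10 fold change of treatment over DMSO control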;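 on 10 uM KAM: median log10 fold change of treatment over DMSO control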
T7 construct: endogenous in cells; host or cells: K562
T7 sequence (P20594 23-1047): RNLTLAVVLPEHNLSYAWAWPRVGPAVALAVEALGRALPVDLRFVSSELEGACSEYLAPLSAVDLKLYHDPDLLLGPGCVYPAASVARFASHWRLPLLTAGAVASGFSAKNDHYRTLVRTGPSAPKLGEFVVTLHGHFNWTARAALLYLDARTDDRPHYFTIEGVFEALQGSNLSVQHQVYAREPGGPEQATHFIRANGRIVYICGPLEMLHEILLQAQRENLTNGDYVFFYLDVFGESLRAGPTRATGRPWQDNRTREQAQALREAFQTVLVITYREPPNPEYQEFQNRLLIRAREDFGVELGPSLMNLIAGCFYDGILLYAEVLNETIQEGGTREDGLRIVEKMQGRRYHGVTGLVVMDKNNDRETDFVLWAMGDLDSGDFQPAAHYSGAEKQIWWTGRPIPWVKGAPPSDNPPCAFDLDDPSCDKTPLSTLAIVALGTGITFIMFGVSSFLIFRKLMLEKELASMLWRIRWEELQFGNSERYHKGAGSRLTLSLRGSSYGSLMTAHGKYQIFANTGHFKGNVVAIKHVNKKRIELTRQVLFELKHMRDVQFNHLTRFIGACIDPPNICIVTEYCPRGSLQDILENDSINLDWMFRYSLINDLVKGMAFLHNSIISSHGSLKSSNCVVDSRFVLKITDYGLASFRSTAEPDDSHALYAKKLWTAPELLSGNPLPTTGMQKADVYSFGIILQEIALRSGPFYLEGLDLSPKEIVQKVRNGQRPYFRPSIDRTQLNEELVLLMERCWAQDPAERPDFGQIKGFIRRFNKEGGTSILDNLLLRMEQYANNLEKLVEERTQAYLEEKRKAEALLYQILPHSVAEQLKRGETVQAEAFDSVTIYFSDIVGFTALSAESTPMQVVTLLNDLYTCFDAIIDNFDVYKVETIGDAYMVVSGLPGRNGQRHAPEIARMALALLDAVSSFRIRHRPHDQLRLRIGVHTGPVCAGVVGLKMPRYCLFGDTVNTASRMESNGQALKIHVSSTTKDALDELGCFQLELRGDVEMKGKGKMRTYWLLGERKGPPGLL
Protocol: as §1

SIK2 = molecular target: T8, SIK2 (Homo sapiens, UniProt Q9H0K1)
T8 construct: endogenous in cells; host or cells: K562 cells (lysate)
Protocol: as §1

[1] = read-out: RB50 (the source's name)
[2] = KAM 0.001-10 uM, read-out: RB50 (the source's name)

T5 sequence (P27361 whole entry): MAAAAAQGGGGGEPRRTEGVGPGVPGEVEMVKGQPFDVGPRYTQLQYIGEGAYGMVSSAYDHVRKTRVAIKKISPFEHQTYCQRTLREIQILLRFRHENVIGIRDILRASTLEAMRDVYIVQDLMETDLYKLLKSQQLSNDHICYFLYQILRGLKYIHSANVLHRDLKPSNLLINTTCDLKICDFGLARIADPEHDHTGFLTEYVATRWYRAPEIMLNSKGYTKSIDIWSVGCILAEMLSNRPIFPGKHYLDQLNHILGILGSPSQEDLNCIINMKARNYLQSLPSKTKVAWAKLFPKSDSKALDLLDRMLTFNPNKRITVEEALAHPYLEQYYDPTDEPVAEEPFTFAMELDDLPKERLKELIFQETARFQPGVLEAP
T4 sequence (Q16539 whole entry): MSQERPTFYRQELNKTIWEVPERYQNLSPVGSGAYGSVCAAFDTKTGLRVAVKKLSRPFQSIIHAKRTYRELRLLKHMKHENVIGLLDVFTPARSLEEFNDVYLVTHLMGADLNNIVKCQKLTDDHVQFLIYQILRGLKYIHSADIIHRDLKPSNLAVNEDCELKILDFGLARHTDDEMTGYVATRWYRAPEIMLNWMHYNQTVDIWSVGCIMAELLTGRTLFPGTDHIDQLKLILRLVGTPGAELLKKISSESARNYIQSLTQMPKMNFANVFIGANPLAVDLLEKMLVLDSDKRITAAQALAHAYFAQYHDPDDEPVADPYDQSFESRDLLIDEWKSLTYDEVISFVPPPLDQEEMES
T3 sequence (P49760 whole entry): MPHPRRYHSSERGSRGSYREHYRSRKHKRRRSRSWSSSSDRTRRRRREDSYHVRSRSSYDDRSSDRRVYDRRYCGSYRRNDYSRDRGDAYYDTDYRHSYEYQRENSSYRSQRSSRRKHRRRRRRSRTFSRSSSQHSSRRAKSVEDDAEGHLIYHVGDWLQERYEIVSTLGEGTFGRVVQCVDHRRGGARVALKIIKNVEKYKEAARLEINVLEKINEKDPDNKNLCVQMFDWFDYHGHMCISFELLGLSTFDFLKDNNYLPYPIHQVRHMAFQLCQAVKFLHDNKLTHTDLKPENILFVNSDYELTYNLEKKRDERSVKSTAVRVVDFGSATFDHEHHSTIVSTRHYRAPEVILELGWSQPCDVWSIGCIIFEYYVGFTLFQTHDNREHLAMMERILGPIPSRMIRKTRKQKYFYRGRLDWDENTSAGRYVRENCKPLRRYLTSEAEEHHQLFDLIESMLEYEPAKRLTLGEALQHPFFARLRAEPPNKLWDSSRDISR
T2 sequence (P36894 24-532): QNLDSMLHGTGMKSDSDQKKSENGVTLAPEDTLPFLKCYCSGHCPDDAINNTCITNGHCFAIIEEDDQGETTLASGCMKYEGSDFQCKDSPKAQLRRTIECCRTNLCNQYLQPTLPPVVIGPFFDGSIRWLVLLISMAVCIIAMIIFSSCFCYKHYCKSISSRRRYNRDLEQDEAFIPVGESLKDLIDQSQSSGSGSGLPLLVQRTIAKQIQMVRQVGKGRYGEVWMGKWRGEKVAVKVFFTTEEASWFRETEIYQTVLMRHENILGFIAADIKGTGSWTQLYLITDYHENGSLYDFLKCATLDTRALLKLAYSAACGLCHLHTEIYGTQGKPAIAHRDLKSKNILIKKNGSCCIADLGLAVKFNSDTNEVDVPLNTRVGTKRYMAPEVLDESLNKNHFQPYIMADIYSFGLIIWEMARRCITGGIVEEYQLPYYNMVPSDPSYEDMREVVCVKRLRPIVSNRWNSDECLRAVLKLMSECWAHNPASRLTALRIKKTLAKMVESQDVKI
T8 sequence (Q9H0K1 whole entry): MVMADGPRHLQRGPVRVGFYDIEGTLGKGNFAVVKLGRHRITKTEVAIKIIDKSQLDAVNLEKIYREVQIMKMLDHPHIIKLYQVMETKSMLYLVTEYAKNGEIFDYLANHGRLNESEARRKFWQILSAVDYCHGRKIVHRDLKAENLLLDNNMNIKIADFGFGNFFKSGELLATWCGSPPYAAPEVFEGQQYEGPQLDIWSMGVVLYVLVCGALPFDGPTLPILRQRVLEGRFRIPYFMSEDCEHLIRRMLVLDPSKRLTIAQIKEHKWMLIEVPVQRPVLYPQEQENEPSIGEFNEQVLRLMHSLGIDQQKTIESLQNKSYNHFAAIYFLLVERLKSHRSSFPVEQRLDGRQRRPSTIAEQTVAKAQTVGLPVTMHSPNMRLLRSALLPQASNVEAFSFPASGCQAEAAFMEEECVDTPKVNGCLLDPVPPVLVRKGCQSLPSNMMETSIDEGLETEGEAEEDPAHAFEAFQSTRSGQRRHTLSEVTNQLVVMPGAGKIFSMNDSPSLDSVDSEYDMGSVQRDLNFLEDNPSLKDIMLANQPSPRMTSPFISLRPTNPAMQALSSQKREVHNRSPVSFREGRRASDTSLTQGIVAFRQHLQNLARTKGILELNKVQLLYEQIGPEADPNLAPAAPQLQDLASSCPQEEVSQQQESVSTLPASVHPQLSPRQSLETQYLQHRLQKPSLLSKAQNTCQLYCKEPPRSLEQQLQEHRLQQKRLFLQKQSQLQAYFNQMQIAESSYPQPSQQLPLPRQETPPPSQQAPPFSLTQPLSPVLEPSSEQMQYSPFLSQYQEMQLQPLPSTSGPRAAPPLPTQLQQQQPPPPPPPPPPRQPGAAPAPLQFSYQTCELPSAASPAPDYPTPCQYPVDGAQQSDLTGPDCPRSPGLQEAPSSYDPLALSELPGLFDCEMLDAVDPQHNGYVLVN
T1 sequence (Q9NSY1 whole entry): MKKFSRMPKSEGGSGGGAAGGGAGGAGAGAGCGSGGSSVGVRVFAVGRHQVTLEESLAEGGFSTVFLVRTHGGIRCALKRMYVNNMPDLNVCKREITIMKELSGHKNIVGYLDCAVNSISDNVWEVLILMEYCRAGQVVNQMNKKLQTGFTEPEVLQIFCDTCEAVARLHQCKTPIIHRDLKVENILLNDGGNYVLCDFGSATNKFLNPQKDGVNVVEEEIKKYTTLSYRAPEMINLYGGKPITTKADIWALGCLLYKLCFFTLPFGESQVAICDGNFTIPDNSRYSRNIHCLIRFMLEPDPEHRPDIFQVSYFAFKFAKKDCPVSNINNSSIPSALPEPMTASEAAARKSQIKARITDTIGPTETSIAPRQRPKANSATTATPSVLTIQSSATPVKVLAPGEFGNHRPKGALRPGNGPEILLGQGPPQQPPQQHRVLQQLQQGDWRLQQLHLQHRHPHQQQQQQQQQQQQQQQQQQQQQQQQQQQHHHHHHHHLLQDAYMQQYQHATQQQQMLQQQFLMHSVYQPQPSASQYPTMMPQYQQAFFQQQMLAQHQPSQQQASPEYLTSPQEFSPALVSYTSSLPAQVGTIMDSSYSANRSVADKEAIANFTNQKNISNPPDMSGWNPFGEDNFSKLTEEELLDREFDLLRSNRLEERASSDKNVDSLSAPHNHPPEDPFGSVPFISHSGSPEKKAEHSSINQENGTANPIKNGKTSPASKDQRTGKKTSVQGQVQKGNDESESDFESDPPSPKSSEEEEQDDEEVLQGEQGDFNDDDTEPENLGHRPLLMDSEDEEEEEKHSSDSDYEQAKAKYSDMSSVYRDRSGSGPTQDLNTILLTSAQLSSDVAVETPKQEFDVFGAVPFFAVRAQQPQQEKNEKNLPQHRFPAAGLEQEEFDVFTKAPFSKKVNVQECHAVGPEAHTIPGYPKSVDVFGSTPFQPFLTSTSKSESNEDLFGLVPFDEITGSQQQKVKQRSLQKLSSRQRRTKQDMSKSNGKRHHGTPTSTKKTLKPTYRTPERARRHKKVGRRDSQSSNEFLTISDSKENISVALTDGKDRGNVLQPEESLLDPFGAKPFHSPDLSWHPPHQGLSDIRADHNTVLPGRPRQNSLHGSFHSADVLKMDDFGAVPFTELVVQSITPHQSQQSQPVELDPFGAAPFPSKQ

Q: N#CCc1ccc(Nc2nc(NCCCN)cc(Nc3cc(C4CC4)[nH]n3)n2)cc1 [KAM] was tested. Which “median Log10 fold change” value (BMP2K; 0.001 uM KAM) did it give?
A: Its value is -0.005905.

Q: What about the “median Log10 fold change” value (BMP2K; 0.01 uM KAM) of the same molecule?
A: The value was -0.3094.

Q: What about the “median Log10 fold change” value (BMP2K; 0.1 uM KAM) of the same molecule?
A: Its value is -0.4691.

Q: And the “median Log10 fold change” value (BMP2K; 1 uM KAM)?
A: Its value is -0.5686.

Q: And the “median Log10 fold change” value (BMP2K; 10 uM KAM)?
A: Its value is -0.6945.

Q: What about the IC50 (BMP2K; [1]) of the same molecule?
A: The IC50 was 0.016 µM.

Q: And the “median Log10 fold change” value (BMPR1A; 0.001 uM KAM)?
A: Its value is -0.03052.

Q: What about the “median Log10 fold change” value (BMPR1A; 0.01 uM KAM) of the same molecule?
A: Its value is -0.01848.

Q: And the “median Log10 fold change” value (BMPR1A; 0.1 uM KAM)?
A: Its value is -0.1062.

Q: And the “median Log10 fold change” value (BMPR1A; 1 uM KAM)?
A: The value was -0.2213.

Q: And the “median Log10 fold change” value (BMPR1A; 10 uM KAM)?
A: The value was -0.3941.

Q: What about the IC50 (BMPR1A; [1]) of the same molecule?
A: Its IC50 is 2.7 µM.

Q: And the IC50 (CLK2; [2])?
A: Its IC50 is over 10 µM.

Q: And the “0.001 uM KAM” value (CLK2; relative to 0 uM KAM = 0)?
A: Its value is -0.009153.

Q: What about the “0.01 uM KAM” value (CLK2; relative to 0 uM KAM = 0) of the same molecule?
A: The value was 0.05043.

Q: What about the “0.1 uM KAM” value (CLK2; relative to 0 uM KAM = 0) of the same molecule?
A: The value was -0.05281.

Q: And the “1 uM KAM” value (CLK2; relative to 0 uM KAM = 0)?
A: The value was -0.09929.

Q: What about the “10 uM KAM” value (CLK2; relative to 0 uM KAM = 0) of the same molecule?
A: Its value is -0.1362.

Q: What about the IC50 (MAPK14; [2]) of the same molecule?
A: The IC50 was over 10 µM.

Q: What about the “0.001 uM KAM” value (MAPK14; relative to 0 uM KAM = 0) of the same molecule?
A: Its value is -0.03046.

Q: And the “0.01 uM KAM” value (MAPK14; relative to 0 uM KAM = 0)?
A: Its value is 0.03223.

Q: What about the “0.1 uM KAM” value (MAPK14; relative to 0 uM KAM = 0) of the same molecule?
A: Its value is 0.1026.

Q: What about the “1 uM KAM” value (MAPK14; relative to 0 uM KAM = 0) of the same molecule?
A: The value was 0.08115.

Q: What about the “10 uM KAM” value (MAPK14; relative to 0 uM KAM = 0) of the same molecule?
A: The value was 0.173.

Q: And the “median Log10 fold change” value (MAPK3; 0.001 uM KAM)?
A: The value was -0.06334.

Q: And the “median Log10 fold change” value (MAPK3; 0.01 uM KAM)?
A: The value was -0.0563.

Q: And the “median Log10 fold change” value (MAPK3; 0.1 uM KAM)?
A: Its value is -0.1467.

Q: And the “median Log10 fold change” value (MAPK3; 1 uM KAM)?
A: The value was -0.2435.

Q: And the “median Log10 fold change” value (MAPK3; 10 uM KAM)?
A: Its value is -0.361.

Q: What about the IC50 (MAPK3; [1]) of the same molecule?
A: Its IC50 is 2.36 µM.

Q: What about the “median Log10 fold change” value (MAPKAPK5; 0.001 uM KAM) of the same molecule?
A: The value was 0.03286.

Q: What about the “median Log10 fold change” value (MAPKAPK5; 0.01 uM KAM) of the same molecule?
A: The value was -0.006541.

Q: And the “median Log10 fold change” value (MAPKAPK5; 0.1 uM KAM)?
A: The value was -0.1605.

Q: And the “median Log10 fold change” value (MAPKAPK5; 1 uM KAM)?
A: Its value is -0.3604.

Q: And the “median Log10 fold change” value (MAPKAPK5; 10 uM KAM)?
A: The value was -0.4852.

Q: What about the IC50 (MAPKAPK5; [1]) of the same molecule?
A: Its IC50 is 0.729 µM.

Q: What about the IC50 (NPR2; [2]) of the same molecule?
A: Its IC50 is over 10 µM.

Q: What about the “0.001 uM KAM” value (NPR2; relative to 0 uM KAM = 0) of the same molecule?
A: The value was -0.04196.

Q: And the “0.01 uM KAM” value (NPR2; relative to 0 uM KAM = 0)?
A: Its value is -0.03427.

Q: And the “0.1 uM KAM” value (NPR2; relative to 0 uM KAM = 0)?
A: The value was -0.06644.

Q: What about the “1 uM KAM” value (NPR2; relative to 0 uM KAM = 0) of the same molecule?
A: The value was -0.002813.

Q: And the “10 uM KAM” value (NPR2; relative to 0 uM KAM = 0)?
A: Its value is -0.07947.

Q: What about the “median Log10 fold change” value (SIK2; 0.001 uM KAM) of the same molecule?
A: Its value is -0.01021.

Q: And the “median Log10 fold change” value (SIK2; 0.01 uM KAM)?
A: Its value is -0.008818.

Q: And the “median Log10 fold change” value (SIK2; 0.1 uM KAM)?
A: Its value is -0.08618.

Q: And the “median Log10 fold change” value (SIK2; 1 uM KAM)?
A: Its value is -0.3925.

Q: And the “median Log10 fold change” value (SIK2; 10 uM KAM)?
A: Its value is -0.5017.

Q: What about the IC50 (SIK2; [1]) of the same molecule?
A: Its IC50 is 0.798 µM.
